Results taken from the NIST ThermoML archive (doi:10.1016/j.fluid.2014.07.004).

What was measured:
[1] = 298.15 K; 101.33 kPa; Liquid; Vibrating tube method
[2] = xn = mol fraction of the nth substance listed; conditions: 298.15 K, 101 kPa, Liquid, Vibrating tube method
[3] = refractive index (Na D-line) (dimensionless); xn = mol fraction of the nth substance listed; conditions: 298.15 K, 101 kPa, Liquid, Standard Abbe refractometry

COc1ccccc1 [anisole]
Conditions	mass density [kg/m3]
[1]	989.42

CO [methanol]
Conditions	mass density [kg/m3]
[1]	786.59

COC(=O)OC [dimethyl carbonate] + CO
Conditions	mass density, [2] [kg/m3]	refractive index, [3]
x2 = 0.0496	1056.77	1.3658
x2 = 0.1	1049.84	1.365
x2 = 0.1997	1034.4	1.3627
x2 = 0.3	1016.89	1.3607
x2 = 0.3999	997.15	1.3578
x2 = 0.5	974.61	1.3543
x2 = 0.5999	948.66	1.3506
x2 = 0.6999	918.36	1.3463
x2 = 0.7999	882.55	1.341
x2 = 0.9	839.54	1.3346
x2 = 0.9499	814.64	1.331

COC(=O)OC [dimethyl carbonate]
Conditions	mass density [kg/m3]
[1]	1063.26

COc1ccccc1 [anisole] + COC(=O)OC
Conditions	mass density, [2] [kg/m3]	refractive index, [3]
x1 = 0.0502	1058.1	1.3759
x1 = 0.0997	1053.35	1.3847
x1 = 0.1995	1044.2	1.402
x1 = 0.2996	1035.64	1.4178
x1 = 0.3999	1027.62	1.4334
x1 = 0.4998	1020.13	1.4485
x1 = 0.5999	1013.15	1.4629
x1 = 0.6999	1006.64	1.4766
x1 = 0.8	1000.51	1.4898
x1 = 0.9003	994.65	1.5027
x1 = 0.9503	991.82	1.5087

COc1ccccc1 [anisole] + CO
Conditions	mass density, [2] [kg/m3]	refractive index, [3]
x2 = 0.0498	985.45	1.5105
x2 = 0.1003	981.36	1.5064
x2 = 0.2003	972.63	1.4974
x2 = 0.3001	962.6	1.4865
x2 = 0.4002	950.84	1.4749
x2 = 0.4997	936.67	1.4609
x2 = 0.5999	919.46	1.445
x2 = 0.7001	898.19	1.4238
x2 = 0.8	871.05	1.398
x2 = 0.8999	835.51	1.3658
x2 = 0.95	813.27	1.3488

Oc1ccccc1 [phenol]
Conditions	mass density [kg/m3]
[1]	1058.51
